Results: PMC11050087, “Polyphenols from Maackia amurensis Heartwood Protect Neuronal Cells from Oxidative Stress and Prevent Herpetic Infection” (International Journal of Molecular Sciences, 2024)

Experiments:
[1] = system: 6-OHDA-treated Neuro-2a cells; assay: Mitochondrial membrane potential detection (TMRM) in 6-OHDA-treated cells; type: cell-based, murine; settings: compound 10 µM; 6-OHDA 120 µM; TMRM
Protocol: We determined the effect of polyphenolic compounds from M. amurensis on 6-OHDA-induced mitochondrial dysfunction in Neuro-2a cells (Figure 6a,b).
Figure 6 The effect of polyphenolic compounds isolated from M. amurensis heartwood on mitochondrial membrane potential in Neuro-2a cells treated with 6-OHDA (120 μM) (a,b). Polyphenolic compounds isolated from M. amurensis heartwood were used at concentrations 10, 1, 0.1 μM. The data are presented as means ± SEM of three independent replicates. (*) and (***) indicate, respectively, p < 0.05 and p < 0.001 versus 6-OHDA-treated cells.
The cells were incubated for 1 h in a 96-well plate (1 × 10^4 cells/well) with polyphenolic compounds (0.1, 1 and 10 µM). Then, 6-OHDA (120 µM) was added, and cell suspension was incubated for 1 h. Cells incubated without 6-OHDA and compounds and with 6-OHDA alone were used as positive and negative control, respectively. The tetramethylrhodamine methyl (TMRM) (Sigma-Aldrich, St. Louis, MO, USA) solution (500 nM) was added to each well and cells were incubated for 30 min at 37 °C. The intensity of fluorescence was measured using a PHERAstar FSplate reader (BMG Labtech, Ortenberg, Germany) at λex = 540 nm and λem = 590 nm. The data were processed by MARS Data Analysis v. 3.01R2 (BMG Labtech, Ortenberg, Germany).

HSV-1 = assay: Virucidal activity, RT-PCR assay (HSV-1 pretreated with compounds); type: cell-based, HSV-1 strain L2; settings: for Ct: 72 h; for −ΔCt: vs virus control; for activity at 0.1 µg/mL / activity at 1 µg/mL / activity at 10 µg/mL / log reduction at 0.1 µg/mL / log reduction at 1 µg/mL / log reduction at 10 µg/mL: Human alphaherpesvirus 1, 72 h; for activity at 0.1 µg/mL / activity at 1 µg/mL / activity at 10 µg/mL: read-out: 2^−ΔCt; for log reduction at 0.1 µg/mL / log reduction at 1 µg/mL / log reduction at 10 µg/mL: read-out: log10
[2] = system: 6-OHDA-treated Neuro-2a cells; assay: ROS analysis in 6-OHDA-treated cells (H2DCF-DA); type: cell-based, murine; settings: 6-OHDA 120 µM; for reduction of ROS levels in 6-OHDA-treated Neuro-2a cells: compound 1 µM
Protocol: We studied the effect of polyphenolic compounds set on ROS levels in 6-OHDA-treated Neuro-2a cells (Figure 5a–d).
Figure 5 The effect of polyphenolic compounds isolated from M. amurensis heartwood on ROS levels in Neuro-2a cells treated with 6-OHDA (120 μM) (a–d). Polyphenolic compounds isolated from M. amurensis heartwood were used at concentrations 10, 1, 0.1 μM. The data are presented as means ± SEM of three independent replicates.
After 24 h of adhesion, Neuro-2a cells (5 × 10^4 cells/mL) were incubated with polyphenolic compounds at concentrations of 0.1, 1, and 10 µM for 1 h. Then, 120 µM of 6-OHDA or 1 mM of PQ were added to each well, and cells were incubated for 1 h. To study the ROS formation, 20 µL of 2,7-dichlorodihydrofluorescein diacetate solution (H2DCF-DA, Sigma-Aldrich, St. Louis, MO, USA) were added to each well, so that the final concentration was 10 µM. Then, the microplate was incubated for 30 min at 37 °C.

With Oc1ccc(/C=C/c2cc(O)cc(O)c2)cc1 [Compound 1, resveratrol] the “increase of mitochondrial membrane potential” value (“increase” below) [1] was 8–12%, the Ct (HSV-1; 0.1 µg/mL) was 18.1 ± 2.2 and the “−ΔCt” value (HSV-1; 0.1 µg/mL) was 0. For the same compound, the Ct (HSV-1; 1 µg/mL) was 20.4 ± 2.8, the “−ΔCt” value (HSV-1; 1 µg/mL) was −2.3 ± 0.2 and the “anti-HSV-1 activity by RT-PCR (in words)” value (HSV-1; 10 µg/mL) was “moderate anti-HSV-1 activity”. The Ct (HSV-1; 10 µg/mL) was 24.6 ± 2.9, the “−ΔCt” value (HSV-1; 10 µg/mL) was −6.5 ± 0.8 and the activity at 0.1 µg/mL (HSV-1) was 100%. The activity at 1 µg/mL (HSV-1) was 20.3 ± 2.4%, the activity at 10 µg/mL (HSV-1) was 1.1 ± 0.14% and the log reduction at 0.1 µg/mL (HSV-1) was 0. The log reduction at 1 µg/mL (HSV-1) was 0.7 ± 0.09, the log reduction at 10 µg/mL (HSV-1) was 1.9 ± 0.2 and the “reduction of ROS levels in 6-OHDA-treated Neuro-2a cells” value (“reduction of ROS levels” below) [2] was “approximately 15%”.

In the case of O=C1C[C@@H](c2ccc(O)cc2)Oc2cc(O)ccc21 [Compound 6, liquiritigenin], the “increase” value [1] is reported as 8–12%, the “virucidal activity against HSV-1 by RT-PCR (in words)” value (HSV-1; 0.1, 1 and 10 µg/mL) is reported as “did not demonstrate virucidal activity” and the “reduction of ROS levels” value [2] is reported as 15%. The “effect on ROS levels in 6-OHDA-treated Neuro-2a cells (in words)” value ([2]; compounds at 10, 1, 0.1 µM) was “dose-dependent effect”.

In the case of Oc1cc(O)cc(/C=C/c2ccc3c(c2)O[C@H](c2cc(O)cc(O)c2)[C@@H](c2ccc(O)c(O)c2)O3)c1 [Compound 9, maackin], the “increase” value [1] is reported as 8–12%, the Ct (HSV-1; 0.1 µg/mL) is reported as 18.6 ± 2.4 and the “−ΔCt” value (HSV-1; 0.1 µg/mL) is reported as −0.50 ± 0.05. For the same compound, the “inhibition of HSV-1 replication by RT-PCR (in words)” value (HSV-1; 1 µg/mL) was “inhibited the replication of HSV-1”, the Ct (HSV-1; 1 µg/mL) was 25.9 ± 2.8 and the “−ΔCt” value (HSV-1; 1 µg/mL) was −7.8 ± 0.9. For the same compound, the “reduction in viral DNA” value (HSV-1; 10 µg/mL) was 4.6 log10, the Ct (HSV-1; 10 µg/mL) was 33.3 ± 4.3 and the “−ΔCt” value (HSV-1; 10 µg/mL) was −15.2 ± 1.8. For the same compound, the activity at 0.1 µg/mL (HSV-1) was 70.7 ± 9.2%, the activity at 1 µg/mL (HSV-1) was 0.449 ± 0.06% and the activity at 10 µg/mL (HSV-1) was 0.00266 ± 0.0003%. It also gave a log reduction at 0.1 µg/mL (HSV-1) of 0.15 ± 0.02, a log reduction at 1 µg/mL (HSV-1) of 2.3 ± 0.3 and a log reduction at 10 µg/mL (HSV-1) of 4.6 ± 0.6.

In the case of Oc1ccc(/C=C/c2cc(O)cc3c2[C@H](c2cc(O)cc(O)c2)[C@@H](c2ccc(O)c(O)c2)O3)cc1 [Compound 13, scirpusin A], the Ct (HSV-1; 0.1 µg/mL) is reported as 18.6 ± 2.4, the “−ΔCt” value (HSV-1; 0.1 µg/mL) is reported as −0.50 ± 0.05 and the “inhibition of HSV-1 replication by RT-PCR (in words)” value (HSV-1; 1 µg/mL) is reported as “inhibited the replication of HSV-1”. For the same compound, the Ct (HSV-1; 1 µg/mL) was 25.8 ± 3.3, the “−ΔCt” value (HSV-1; 1 µg/mL) was −7.7 ± 0.8 and the “reduction in viral DNA” value (HSV-1; 10 µg/mL) was 3.9 log10. The Ct (HSV-1; 10 µg/mL) was 31.2 ± 3.7, the “−ΔCt” value (HSV-1; 10 µg/mL) was −13.1 ± 1.6 and the activity at 0.1 µg/mL (HSV-1) was 70.7 ± 9.2%. For the same compound, the activity at 1 µg/mL (HSV-1) was 0.481 ± 0.06%, the activity at 10 µg/mL (HSV-1) was 0.0114 ± 0.001% and the log reduction at 0.1 µg/mL (HSV-1) was 0.15 ± 0.02. For the same compound, the log reduction at 1 µg/mL (HSV-1) was 2.3 ± 0.3, the log reduction at 10 µg/mL (HSV-1) was 3.9 ± 0.5 and the “reduction of ROS levels” value [2] was 43%.
